One data set addresses T1, recombinant human PTP4A3 (Homo sapiens, UniProt O75365).
T1 construct: The cDNA for the full-length ptp4a3 was obtained from OriGene (SC308739); His6 (N); host or cells: E. coli BL21 (DE3)
Kind of data set: In vitro phosphatase inhibition (DiFMUP substrate). The data set is classed as biochemical. The conditions noted are these: Mean ± SEM, N = 3, * N = 6, ** N = 8; DiFMUP 12 μM, 25 °C, 30 min; read-out: in vitro IC50 against recombinant human PTP4A3.

Another data set deals with COV362-47R. The experiment in a line: Cytotoxicity, 3D spheroids, CellTiter Glo 3D. The data set is classed as cell-based. The conditions noted are these: Homo sapiens, 48 h exposure, carboplatin resistant line, read-out: EC50 (μM ± SEM) COV362-47R. (In ATP-based viability assays light output follows the ATP content of the culture.)
For the next data set, the system named is COV362. Kind of data set: Cytotoxicity, 3D spheroids, CellTiter Glo 3D. The data set is classed as cell-based. The conditions noted are these: Homo sapiens, 48 h exposure, read-out: EC50 (μM ± SEM) COV362.
In a further data set the test system is Kuramochi. The experiment in a line: Cytotoxicity, 3D spheroids, CellTiter Glo 3D. The data set is classed as cell-based. The following applies: Homo sapiens, 48 h exposure, read-out: EC50 (μM ± SEM) Kuramochi.
The next data set has as its system OVCAR4. Kind of data set: Cytotoxicity, 3D spheroids, CellTiter Glo 3D. The following applies: Homo sapiens, OVCAR-4, 48 h exposure, read-out: EC50 (μM ± SEM) OVCAR4. The data set is classed as cell-based.
For a further data set, the system named is OVSAHO. The experiment in a line: Cytotoxicity, 3D spheroids, CellTiter Glo 3D. The data set is classed as cell-based. The conditions noted are these: Homo sapiens, 48 h exposure, read-out: EC50 (μM ± SEM) OVSAHO.
Another data set concerns V581. The experiment in a line: Cytotoxicity, 3D spheroids, CellTiter Glo 3D. The data set is classed as cell-based. The conditions noted are these: Homo sapiens, 48 h exposure, patient-derived cell line, read-out: EC50 (μM ± SEM) V581.
Another data set relates to COV362 parent line. The experiment in a line: Viability assay with 3-(4,5-dimethylthiazol-2-yl)-2,5-diphenyltetrazolium bromide. The data set is classed as cell-based, human. The following applies: MTT viability assay, read-out: EC50 (concentration that caused a 50% cytotoxicity). For orientation: Tetrazolium dyes change colour on reduction, which living cells bring about.

The subject of another data set is COV362-47R cells. Described as above. The conditions noted are these: MTT viability assay, read-out: EC50 (concentration that caused a 50% cytotoxicity). The data set is classed as cell-based, human.

T1 sequence (O75365 whole entry): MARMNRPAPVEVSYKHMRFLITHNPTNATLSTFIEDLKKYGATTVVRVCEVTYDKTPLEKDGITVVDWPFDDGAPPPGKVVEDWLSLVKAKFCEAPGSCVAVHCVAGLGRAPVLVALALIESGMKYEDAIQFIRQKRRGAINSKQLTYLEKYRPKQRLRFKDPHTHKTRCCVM

A word on the IC50: it is the concentration needed to halve the response being measured. In the case of `N=C1C(=O)NC(=O)c2c(-c3ccccc3)csc21` [EJR-912-41], the IC50 on recombinant human PTP4A3 came to 0.0637 ± 0.0073 µM. Also, the EC50 in the data set with COV362-47R was over 50 µM; with COV362 it was 31.6 ± 6.8 µM; in the data set with Kuramochi, 7 µM; in the data set on OVCAR4 it was 26.9 ± 3.9 µM; with OVSAHO it was 38.7 ± 1.7 µM; in the data set on V581, over 50 µM.
For `O=C1NC(=O)c2c(-c3ccccc3)csc2C1=O` [EJR-912-43], the IC50 on recombinant human PTP4A3 turned out to be 0.0537 ± 0.0124 µM. The EC50 in the data set with COV362-47R, in the data set on COV362, in the data set with Kuramochi, in the data set with OVCAR4, in the data set on OVSAHO and in the data set on V581 was over 50 µM in each case.
With `Cc1cc2c(s1)C(=O)C(=O)NC2=O` [EJR-912-50], at recombinant human PTP4A3, the IC50 was found to be 0.0606 ± 0.006 µM. For the same compound, the EC50 with COV362-47R, in the data set on COV362, in the data set on Kuramochi, with OVCAR4, with OVSAHO and in the data set on V581 was over 50 µM throughout.
Consider `Cc1cc2c(s1)C(=N)C(=O)NC2=O` [EJR-912-57], for which the IC50 at recombinant human PTP4A3 turned out to be 0.0897 ± 0.014 µM. Also, the EC50 with COV362-47R is over 50 µM; in the data set with COV362, 28.3 ± 3.1 µM; in the data set on Kuramochi it was over 50 µM; with OVCAR4 it was over 25 µM; with OVSAHO, over 50 µM; with V581, over 50 µM.
`CN1C(=O)C(=N)c2sc(-c3ccccc3)cc2C1=O` [NRT-870-59]: the EC50 is over 50 µM with COV362-47R; over 50 µM in the data set on COV362; 30.6 µM with Kuramochi; over 50 µM with OVCAR4; over 50 µM in the data set with OVSAHO; over 50 µM with V581.
In the case of `O=C(c1cc(Cc2n[nH]c(=O)c3ccccc23)ccc1F)N1CCN(C(=O)C2CC2)CC1` [Olaparib], the EC50 with COV362-47R, in the data set on COV362, in the data set with Kuramochi, with OVCAR4, in the data set on OVSAHO and in the data set with V581 was over 50 µM throughout.
With `CC(=O)O[C@H]1C(=O)[C@@]2(C)[C@H]([C@H](OC(=O)c3ccccc3)[C@]3(O)C[C@H](OC(=O)[C@H](O)[C@@H](NC(=O)c4ccccc4)c4ccccc4)C(C)=C1C3(C)C)[C@]1(OC(C)=O)CO[C@@H]1C[C@@H]2O` [Paclitaxel, reference compound], the EC50 with COV362-47R, in the data set on COV362, in the data set on Kuramochi, with OVCAR4, in the data set on OVSAHO and with V581 was over 5 µM in each case.
As to `CC[C@@]1(O)C(=O)OCc2c1cc1n(c2=O)Cc2cc3c(CN(C)C)c(O)ccc3nc2-1` [Topotecan, reference compound], the EC50 with COV362-47R was 25.3 ± 9.8 µM; in the data set with COV362, 2.5 ± 0.7 µM; with OVCAR4, 2.5 ± 0.8 µM; with OVSAHO, 2.5 ± 1.1 µM.
Take `C[C@]1(c2nc3c(C(N)=O)cccc3[nH]2)CCCN1` [Veliparib, reference compound]: the EC50 in the data set on COV362-47R, with COV362, in the data set with Kuramochi, in the data set with OVCAR4, with OVSAHO and in the data set with V581 was over 50 µM each time.
In the case of `N.N.O=C([O-])C1(C(=O)[O-])CCC1.[Pt+2]` [carboplatin], the EC50 in the data set with COV362 parent line is about 20 µM; in the data set on COV362-47R cells, about 200 µM.

Values taken from PMC8329922, “Credentialing and Pharmacologically Targeting PTP4A3 Phosphatase as a Molecular Target for Ovarian Cancer” (Biomolecules, 2021).
